Reference: ChEMBL document CHEMBL5352488, “Development of novel S-N3-DABO derivatives as potent non-nucleoside reverse transcriptase inhibitors with improved potency and selectivity” (Eur J Med Chem, 2023)
pEC50: −log10 of the molar value.

How the values were obtained:
[1] = system: Human immunodeficiency virus 1; experiment: Anti-HIV activity against drug resistant HIV-1 harboring Y188L mutant infected in human MT4 cells assessed as inhibition of virus-induced cytopathic effect by MTT assay; type: functional, organism-based; details: Human immunodeficiency virus 1, MT4
[2] = system: Human immunodeficiency virus 1; experiment: Anti-HIV activity against drug resistant HIV-1 harboring E138K mutant infected in human MT4 cells assessed as inhibition of virus-induced cytopathic effect by MTT assay; type: functional, organism-based; details: Human immunodeficiency virus 1, MT4
[3] = system: Human immunodeficiency virus 1; experiment: Anti-HIV activity against drug resistant HIV-1 harboring F227L/V106A mutant infected in human MT4 cells assessed as inhibition of virus-induced cytopathic effect by MTT assay; type: functional, organism-based; details: Human immunodeficiency virus 1, MT4
[4] = system: Human immunodeficiency virus 1; experiment: Anti-HIV activity against wild type HIV-1 IIIB infected in human MT4 cells assessed as inhibition of virus-induced cytopathic effect by MTT assay; type: functional, organism-based; details: Human immunodeficiency virus 1, IIIB
[5] = Selectivity index, ratio of CC50 for cytotoxicity against human MT4 cells assessed as reduction in cell viability by MTT assay to EC50 for anti-HIV activity against wild type HIV-1 IIIB infected in human MT4 cells assessed as inhibition of virus-induced cytopathic effect by MTT assay; type: toxicity, cell-based; details: read-out: Ratio CC50/EC50
[6] = Cytotoxicity against human MT4 cells assessed as reduction in cell viability by MTT assay; type: toxicity, cell-based
[7] = system: Human immunodeficiency virus 1; experiment: Anti-HIV activity against drug resistant HIV-1 harboring K103N mutant infected in human MT4 cells assessed as inhibition of virus-induced cytopathic effect by MTT assay; type: functional, organism-based; details: Human immunodeficiency virus 1, MT4
[8] = system: Human immunodeficiency virus 1; experiment: Anti-HIV activity against drug resistant HIV-1 harboring Y181C mutant infected in human MT4 cells assessed as inhibition of virus-induced cytopathic effect by MTT assay; type: functional, organism-based; details: Human immunodeficiency virus 1, MT4
[9] = system: Human immunodeficiency virus 1; experiment: Anti-HIV activity against drug resistant HIV-1 harboring L100I mutant infected in human MT4 cells assessed as inhibition of virus-induced cytopathic effect by MTT assay; type: functional, organism-based; details: Human immunodeficiency virus 1, MT4

Compound	pEC50 [1]	pEC50 [2]	pEC50 [3]	pEC50 [4]	selectivity ratio [5]	CC50 [6] [µM]	pEC50 [7]	pEC50 [8]	pEC50 [9]
Cc1c(C(C#N)c2ccccc2)nc(SC(C)C)[nH]c1=O (stereo unspecified)	< 3.69	6.06	4.67	6.43					
CC(C)Sc1nc(C(N=[N+]=[N-])c2ccccc2)c(C(C)C)c(=O)[nH]1 (stereo unspecified)				6.33	> 780	> 364			
Cc1c(C(N=[N+]=[N-])c2ccc(Cl)cc2)nc(SC(C)C)[nH]c1=O (stereo unspecified)	< 3.45	5.44	< 3.45	6.66	> 1650	> 357	4.21	< 3.45	4.96
Cc1ccc(C(N=[N+]=[N-])c2nc(SC(C)C)[nH]c(=O)c2C(C)C)cc1 (stereo unspecified)				6.28	> 667	> 350			
Cc1c(C(N=[N+]=[N-])c2ccc(Br)cc2)nc(SC(C)C)[nH]c1=O (stereo unspecified)				6.64	> 1410	> 317			
Cc1c(C(N=[N+]=[N-])c2cccc3ccccc23)nc(SC(C)C)[nH]c1=O (stereo unspecified)	< 3.47	5.86	< 3.47	6.47	> 1000	> 342	< 3.47	3.73	5.28
CC(C)Sc1nc(C(N=[N+]=[N-])c2ccc(-c3ccccc3)cc2)c(C(C)C)c(=O)[nH]1 (stereo unspecified)				< 4.23	< 1	84.2			
CC(C)Sc1nc(C(N=[N+]=[N-])c2ccc(F)cc2)c(C(C)C)c(=O)[nH]1 (stereo unspecified)				5.94	> 298	> 346			
Cc1c(C(N=[N+]=[N-])c2ccc(OC(F)(F)F)cc2)nc(SC(C)C)[nH]c1=O (stereo unspecified)				5.31	> 63	> 313			
Cc1c(C(N=[N+]=[N-])c2ccc(F)cc2)nc(SC(C)C)[nH]c1=O (stereo unspecified)				6.54	1090	320			
CCc1c(C(N=[N+]=[N-])c2ccc3ccccc3c2)nc(SC(C)C)[nH]c1=O (stereo unspecified)				6.28	< 8	3.98			
CCc1c(C(N=[N+]=[N-])c2ccc(F)cc2)nc(SC(C)C)[nH]c1=O (stereo unspecified)				6.42	> 956	> 360			
CCc1c(C(N=[N+]=[N-])c2cc(OC)cc(OC)c2)nc(SC(C)C)[nH]c1=O (stereo unspecified)				6.04	> 349	> 321			
Cc1cc(C)cc(C(N=[N+]=[N-])c2nc(SC(C)C)[nH]c(=O)c2C(C)C)c1 (stereo unspecified)				6.42	> 878	> 336			
Cc1c(C(N=[N+]=[N-])c2ccccc2)nc(SC(C)C)[nH]c1=O (stereo unspecified)	< 3.40	5.58	< 3.40	7.26	> 7190	> 396	< 3.41	< 3.40	4.97
Cc1c(C(N=[N+]=[N-])c2ccc(-c3ccccc3)cc2)nc(SC(C)C)[nH]c1=O (stereo unspecified)				< 3.50		> 319			
CC(C)Sc1nc(C(N=[N+]=[N-])c2ccc(Cl)cc2)c(C(C)C)c(=O)[nH]1 (stereo unspecified)				6.05	> 367	> 331			
CCc1c(C(N=[N+]=[N-])c2ccc(-c3ccccc3)cc2)nc(SC(C)C)[nH]c1=O (stereo unspecified)	4.18	6.43	4.80	< 3.51		> 308	4.68	5.36	5.69
Cc1ccc(C(N=[N+]=[N-])c2nc(SC(C)C)[nH]c(=O)c2C)cc1 (stereo unspecified)				7.08	93	7.73			
O=C1Nc2ccc(Cl)cc2[C@@](C#CC2CC2)(C(F)(F)F)O1 [EFAVIRENZ]			6.55						
Cc1ccnc2c1NC(=O)c1cccnc1N2C1CC1 [NEVIRAPINE]	< 4.82		< 4.82			> 15		5.11	
Cc1cn([C@H]2C[C@H](N=[N+]=[N-])[C@@H](CO)O2)c(=O)[nH]c1=O [ZIDOVUDINE]			7.59		> 236	> 7.06	7.62	7.64	7.92
